Patent US20230023559A1, “ARYLMETHYLENE HETEROCYCLIC COMPOUNDS AS KV1.3 POTASSIUM SHAKER CHANNEL BLOCKERS” (D. E. Shaw Research, LLC, priority 2019, published 2023)

What was measured:
hERG channel = hERG channel (Homo sapiens, UniProt Q12809); experiment: hERG electrophysiology, automated whole-cell patch clamp (Patchliner)
Kv1.3 potassium channel = target: T1, Kv1.3 potassium channel (Homo sapiens, UniProt P22001); experiment: Kv1.3 potassium channel blocker activity, automated whole-cell patch clamp (Patchliner); type: cell-based; details: CHO-K1 cells stably expressing Kv1.3; whole cell current inhibition; read-out: Kv1.3_IC50
T1 construct: expressed in transfected cells
In short: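 CHO-K1 cells stably expressing Kv1.3, automated whole-cell patch clamp. Currents evoked by 100 ms steps from −90 mV holding to +40 mV at 0.1 Hz, sampled at 10 kHz unfiltered, P/4 leak subtraction; peak current inhibition measured, compound incubation ≤10 s between pulse trains.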

Sequence of hERG channel (Q12809 whole entry): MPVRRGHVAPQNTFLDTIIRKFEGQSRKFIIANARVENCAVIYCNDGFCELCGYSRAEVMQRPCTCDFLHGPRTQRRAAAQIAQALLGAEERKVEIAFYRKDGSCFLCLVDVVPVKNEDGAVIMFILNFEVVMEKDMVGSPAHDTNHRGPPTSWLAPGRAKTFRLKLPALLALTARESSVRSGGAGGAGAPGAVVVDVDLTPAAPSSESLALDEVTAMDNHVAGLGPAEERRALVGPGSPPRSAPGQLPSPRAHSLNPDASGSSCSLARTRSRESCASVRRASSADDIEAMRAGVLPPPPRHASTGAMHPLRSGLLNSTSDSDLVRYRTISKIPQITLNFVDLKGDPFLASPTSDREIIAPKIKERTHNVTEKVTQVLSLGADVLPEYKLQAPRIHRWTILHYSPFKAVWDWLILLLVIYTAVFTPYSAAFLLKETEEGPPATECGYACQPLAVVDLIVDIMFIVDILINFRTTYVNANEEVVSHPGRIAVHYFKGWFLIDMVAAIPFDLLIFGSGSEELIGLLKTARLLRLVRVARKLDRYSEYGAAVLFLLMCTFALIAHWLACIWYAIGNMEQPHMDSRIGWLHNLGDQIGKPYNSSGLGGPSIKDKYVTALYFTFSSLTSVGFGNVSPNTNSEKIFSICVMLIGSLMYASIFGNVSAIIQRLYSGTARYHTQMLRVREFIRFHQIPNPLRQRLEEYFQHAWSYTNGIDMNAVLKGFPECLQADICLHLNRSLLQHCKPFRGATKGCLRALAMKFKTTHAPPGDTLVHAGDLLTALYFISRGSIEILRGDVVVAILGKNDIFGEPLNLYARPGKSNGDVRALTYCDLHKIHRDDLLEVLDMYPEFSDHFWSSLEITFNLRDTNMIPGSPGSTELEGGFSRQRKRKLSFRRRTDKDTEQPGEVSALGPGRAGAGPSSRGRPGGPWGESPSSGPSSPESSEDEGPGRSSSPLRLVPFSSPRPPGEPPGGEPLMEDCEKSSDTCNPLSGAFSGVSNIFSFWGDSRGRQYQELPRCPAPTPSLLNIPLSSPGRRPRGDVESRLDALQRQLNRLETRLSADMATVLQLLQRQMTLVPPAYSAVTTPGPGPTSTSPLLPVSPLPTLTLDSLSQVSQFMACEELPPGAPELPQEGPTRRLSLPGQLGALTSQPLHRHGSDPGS
T1 sequence (P22001 whole entry): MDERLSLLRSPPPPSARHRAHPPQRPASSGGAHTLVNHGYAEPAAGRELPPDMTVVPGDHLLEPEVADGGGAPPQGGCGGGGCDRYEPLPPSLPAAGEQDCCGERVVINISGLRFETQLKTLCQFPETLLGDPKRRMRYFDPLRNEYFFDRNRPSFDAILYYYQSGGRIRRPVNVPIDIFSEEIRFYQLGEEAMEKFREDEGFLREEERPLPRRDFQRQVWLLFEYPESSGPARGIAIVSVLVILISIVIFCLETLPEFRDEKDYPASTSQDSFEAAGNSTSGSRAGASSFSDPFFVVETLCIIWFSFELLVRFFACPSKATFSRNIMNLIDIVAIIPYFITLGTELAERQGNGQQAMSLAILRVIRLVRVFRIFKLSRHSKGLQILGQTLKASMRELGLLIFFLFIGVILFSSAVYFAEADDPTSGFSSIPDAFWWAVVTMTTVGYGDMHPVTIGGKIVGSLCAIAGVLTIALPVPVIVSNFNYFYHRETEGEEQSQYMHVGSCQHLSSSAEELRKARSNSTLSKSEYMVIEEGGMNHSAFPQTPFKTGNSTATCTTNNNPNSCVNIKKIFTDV

| Compound | IC50 (Kv1.3 potassium channel) | IC50 (hERG channel) |
| --- | --- | --- |
| Cn1ccc(N2CCC([C@@H](N)c3cc(Cl)c(Cl)cc3O)CC2)cc1=O [Compound 297, 4-[4-[(R)-amino(4,5-dichloro-2-hydroxyphenyl)methyl]piperidin-1-yl]-1-methylpyridin-2-one] | < 0.5 µM | < 30 µM |
| N[C@@H](c1cc(Cl)c(Cl)cc1O)C1CCN(C(=O)COC2COC2)CC1 [Compound 192, 1-[4-[(R)-amino(4,5-dichloro-2-hydroxyphenyl)methyl]piperidin-1-yl]-2-(oxetan-3-yloxy)ethan-1-one] | < 0.5 µM | > 30 µM |
| NC(c1c(O)cc(Cl)c(Cl)c1F)C1CCN(C(=O)[C@H](O)CO)CC1 (stereo partly drawn) [Compound 328, (2R)-1-[4-[amino(3,4-dichloro-2-fluoro-6-hydroxyphenyl)methyl]piperidin-1-yl]-2,3-dihydroxypropan-1-one Trifluoroacetic Acid] | < 0.5 µM | > 30 µM |
| CC(C)(O)CC(=O)N1CCC(C(N)c2cc(Cl)c(Cl)cc2O)CC1 (centres unmarked) [Compound 49, 1-(4-(amino(4,5-dichloro-2-hydroxyphenyl)methyl)piperidin-1-yl)-3-hydroxyl-3-methylbutan-1-one trifluoroacetic acid] | < 10 µM | < 30 µM |
| CCc1cc(O)c([C@H](N)C2CCN(C(=O)[C@H](O)CO)CC2)cc1Cl [Compound 292, (2R)-1-[4-[(R)-amino(5-chloro-4-ethyl-2-hydroxyphenyl)methyl]piperidin-1-yl]-2,3-dihydroxypropan-1-one Trifluoroacetic Acid] | < 0.5 µM | > 30 µM |
| N[C@@H](c1cc(Cl)c(CF)cc1O)C1CCN(C(=O)[C@H](O)CO)CC1 [Compound 226, (2R)-1-[4-[(R)-amino[5-chloro-4-(fluoromethyl)-2-hydroxyphenyl]methyl]piperidin-1-yl]-2,3-dihydroxypropan-1-one Trifluoroacetic Acid] | < 0.5 µM | > 30 µM |
| CN1CC[C@@H](C(=O)N2CCC([C@@H](N)c3cc(Cl)c(Cl)cc3O)CC2)C1 [Compound 104, 2-[(R)-amino([1-[(3R)-1-methylpyrrolidine-3-carbonyl]piperidin-4-yl])methyl]-4,5-dichlorophenol] | < 0.5 µM | > 30 µM |
| N[C@@H](c1c(O)cc(Cl)c(Cl)c1Cl)C1CCN(C(=O)[C@H](O)CO)CC1 [Compound 188, (R)-1-(4-((R)-amino(2,3,4-trichloro-6-hydroxyphenyl)methyl)piperidin-1-yl)-2,3-dihydroxypropan-1-one Trifluoroacetic Acid] | < 10 µM | > 30 µM |
| CC(=O)NC(c1cc(Cl)c(Cl)cc1O)C1CCNCC1 (centres unmarked) [Compound 11, N-[(4,5-dichloro-2-hydroxyphenyl)(piperidin-4-yl)methyl]acetamide] | < 10 µM | > 30 µM |
| CN1C(=O)CC[C@H]1C(=O)N1CCC([C@@H](N)c2cc(Cl)c(Cl)cc2O)CC1 [Compound 306, (S)-5-(4-((R)-amino(4,5-dichloro-2-hydroxyphenyl)methyl)piperidine-1-carbonyl)-1-methylpyrrolidin-2-one trifluoroacetic acid] | < 0.5 µM | > 30 µM |
| C[C@@H](O)[C@@H](O)C(=O)N1CCC([C@@H](N)c2cc(Cl)c(Cl)cc2O)CC1 (mixture of isomers) [Compound 281, 1-[4-[(R)-amino(4,5-dichloro-2-hydroxyphenyl)methyl]piperidin-1-yl]-(2R,3R)-rel-dihydroxybutan-1-one trifluoro-acetic acid] | < 0.5 µM | > 30 µM |
| N[C@@H](c1cc(Cl)c(Cl)cc1O)C1CCN(S(=O)(=O)C2CCNC2)CC1 (stereo partly drawn) [Compound 110, 2-[(R)-amino[1-(pyrrolidine-3-sulfonyl)piperidin-4-yl]methyl]-4,5-dichlorophenol] | < 0.5 µM | > 30 µM |
| C[C@H]1CN(C(=O)[C@H](O)CO)CC[C@H]1[C@@H](N)c1cc(Cl)c(Cl)cc1O (single isomer, unassigned; isomer 2) [Compound 332] | < 0.5 µM | > 30 µM |
| CN1CC[C@H](C(=O)N2CCC([C@@H](N)c3cc(Cl)c(Cl)cc3O)CC2)C1 [Compound 106, (4-((R)-amino(4,5-dichloro-2-hydroxyphenyl)methyl)piperidin-1-yl)((S)-1-methylpyrrolidin-3-yl)methanone] | < 0.5 µM | > 30 µM |
| N[C@@H](c1cc(Cl)c(Cl)cc1O)C1CCN(c2cc[nH]c(=O)c2)CC1 [Compound 180, 4-[4-[(R)-amino(4,5-dichloro-2-hydroxyphenyl)methyl]piperidin-1-yl]-1,2-dihydropyridin-2-one Trifluoroacetic Acid] | < 0.5 µM | > 30 µM |
| Cc1cc(O)c([C@H](N)C2CCN(C(=O)c3ccc4c(c3)CNC4=O)CC2)cc1Cl [Compound 324, 5-[4-[(R)-amino(5-chloro-2-hydroxy-4-methylphenyl)methyl]piperidine-1-carbonyl]-2,3-dihydroisoindol-1-one trifluoroacetic acid] | < 0.5 µM | > 30 µM |
| C[C@](O)(CO)C(=O)N1CCC([C@@H](N)c2cc(Cl)c(Cl)cc2O)CC1 (single isomer, unassigned; isomer 2) [Compound 218] | < 10 µM | > 30 µM |
| Cc1cc(O)c([C@H](N)C2CCN(C(=O)C3CCS(=O)(=O)CC3)CC2)cc1Cl [Compound 247, (R)-(4-(amino(5-chloro-2-hydroxy-4-methylphenyl)methyl)piperidin-1-yl)(1,1-dioxidotetrahydro-2H-thiopyran-4-yl)methanone trifluoroacetic acid] | < 0.5 µM | > 30 µM |
| Cc1cc(O)c([C@H](N)C2CCN(C(=O)[C@H](O)CO)CC2)c(F)c1Cl [Compound 244, (2R)-1-[4-[(R)-amino(3-chloro-2-fluoro-6-hydroxy-4-methylphenyl)methyl]piperidin-1-yl]-2,3-dihydroxypropan-1-one] | < 0.5 µM | > 30 µM |
| N[C@@H](c1cc(Cl)c(Cl)cc1O)C1CCN(C(=O)[C@H]2COCCO2)CC1 [Compound 169, 2-[(R)-amino([1-[(2R)-1,4-dioxane-2-carbonyl]piperidin-4-yl])methyl]-4,5-dichlorophenol trifluoroacetic acid] | < 10 µM | < 30 µM |

Further lines, with some results ahead:

| IC50 (Kv1.3 potassium channel) | Compound | IC50 (hERG channel) |
| --- | --- | --- |
| < 0.5 µM | N[C@@H](c1cc(Cl)c(Cl)cc1O)C1CCN(C(=O)[C@@H]2OCC[C@@H]2O)CC1 [Compound 260, (2R,3S)-2-[4-[(R)-amino(4,5-dichloro-2-hydroxyphenyl)methyl]piperidine-1-carbonyl]oxolan-3-ol Trifluoroacetic Acid] | > 30 µM |
| < 0.5 µM | N[C@@H](c1cc(Cl)c(Cl)cc1O)C1CCN(C(=O)[C@H](O)CO)CC1 (single isomer, unassigned) [Compound 119] | > 30 µM |
| < 0.5 µM | Nc1[nH]ncc1C(=O)N1CCC([C@@H](N)c2cc(Cl)c(Cl)cc2O)CC1 [Compound 211, 2-[(R)-amino[1-(5-amino-1H-pyrazole-4-carbonyl)piperidin-4-yl]methyl]-4,5-dichlorophenol trifluoroacetic acid] | > 30 µM |
| < 10 µM | NC(=O)N1CCC([C@@H](N)c2cc(Cl)c(Cl)cc2O)CC1 (single isomer, unassigned) [Compound 82] | > 30 µM |
| < 0.5 µM | N[C@@H](c1cc(Cl)c(Cl)cc1O)C1CCN(C(=O)[C@H]2C[C@H](O)C2)CC1 [Compound 139, 2-[(R)-amino([1-[(1R,3R)-3-hydroxycyclo-butanecarbonyl]piperidin-4-yl])methyl]-4,5-dichlorophenol trifluoroacetic acid] | > 30 µM |
| < 0.5 µM | N[C@@H](c1cc(Cl)c(Cl)cc1O)C1CCN(C(=O)[C@@H]2CCN2)CC1 [Compound 100, 2-[(R)-amino([1-[(2S)-azetidine-2-carbonyl]piperidin-4-yl])methyl]-4,5-dichlorophenol] | > 30 µM |
| < 0.5 µM | C[C@@H](N)C(=O)N1CCC([C@@H](N)c2cc(Cl)c(Cl)cc2O)CC1 (single isomer, unassigned) [Compound 69] | > 30 µM |
| < 0.5 µM | NCC(=O)N1CCC([C@@H](N)c2cc(Cl)c(Cl)cc2O)CC1 [Compound 92, 2-amino-1-[4-[(R)-amino(4,5-dichloro-2-hydroxyphenyl)methyl]piperidin-1-yl]ethan-1-one Trifluoroacetic Acid] | > 30 µM |
| < 10 µM | CC(=O)N1CCC([C@H](N)c2cc(Cl)c(Cl)cc2O)CC1 (single isomer, unassigned) [Compound 19] | < 30 µM |
| < 0.5 µM | N[C@@H](c1cc(Cl)c(Cl)cc1O)C1CCN(C(=O)[C@@H](O)CO)CC1 (single isomer, unassigned) [Compound 120] | > 30 µM |
| < 0.5 µM | C[C@H](O)[C@@H](N)C(=O)N1CCC([C@@H](N)c2cc(Cl)c(Cl)cc2O)CC1 [Compound 173, (2R,3S)-2-amino-1-(4-((R)-amino(4,5-dichloro-2-hydroxyphenyl)methyl)piperidin-1-yl)-3-hydroxybutan-1-one bis (trifluoroacetic acid)] | > 30 µM |
| < 0.5 µM | N[C@@H](c1cc(Cl)c(Cl)cc1O)C1CCN(C(=O)[C@H]2CNC(=O)C2)CC1 (single isomer, unassigned; isomer 2) [Compound 246] | > 30 µM |
| < 0.5 µM | N[C@@H](c1cc(Cl)c(Cl)cc1O)C1CCN(C(=O)[C@H]2CNC(=O)OC2)CC1 (single isomer, unassigned; isomer 1) [Compound 338] | > 30 µM |
| < 0.5 µM | Cc1cc(O)c([C@H](N)C2CCN(C(=O)c3c[nH]c(=O)c(Cl)c3)CC2)cc1Cl [Compound 241, 5-[4-[(R)-amino (5-chloro-2-hydroxy-4-methylphenyl)methyl]piperidine-1-carbonyl]-3-chloro-1H-pyridin-2-one trifluoro-acetic acid] | > 30 µM |
